Tested on: dermal fibroblast
Experiment: Influence of fatty acids on intracellular neutral lipid content of dermal fibroblast from diabetic patient, enzyme assay
Format: cell-based, human
Parameters: Intracellular TG-decreasing activity: scale not given here
Conditions: for Intracellular TG-decreasing activity: based on part of the results in FIG. 4 and FIG. 5; for Activity to decrease intracellular TG: comparison of medium-chain fatty acids (FIG. 5); for Intracellular TG (neutral lipid) content: fatty acid added at 50 and 500 μM, cells collected 2 days later, versus no fatty acid (FIG. 4)
From the text: With the consent of the diabetic patient in Example 3, part of dermal tissue was harvested and was then subjected to primary culture (culture medium: DMEM/10% FBS) by Explant method, followed by repeated subculture to give a cell line. The resulting dermal fibroblast was examined for the influence of various fatty acids on an intracellular neutral lipid content. Specifically, the dermal specimen harvested from the patient was subjected to an in vitro enzyme assay using various fatty acids to measure an intracellular neutral lipid content. The enzyme assay was performed using a triglyceride quantification kit (manufacturer: BioVision, Inc., product code: K622-100). […] To the patient's cells, the various fatty acids were added, and 2 days later, the cells were collected. In the figures, (-) is a specimen to which no fatty acid was added (cultured as a control in DMEM/10% FBS alone). C16:0 is palmitic acid, C18:1 is oleic acid, C18:2 is linoleic acid, C20:4 is arachidonic acid, C20:5 is eicosapentaenoic acid (EPA), C7:0 is heptanoic acid, C8:0 is caprylic acid, and C10:0 is capric acid.

Row | SMILES | Intracellular TG-decreasing activity | Activity to decrease intracellular TG | Intracellular TG (neutral lipid) content
1 | CC(C)CCCCCCC(=O)O [8-methylnonanoic acid] | 100 | great activity to decrease TG | 
2 | CCCCCCC(=O)O [heptanoic acid, reference compound] | 0 |  | increased
3 | CCCCCCCC(=O)O [caprylic acid] | 5 |  | 
4 | CCCCCCCCCC(=O)O [capric acid] | 100 | great activity to decrease TG | decreased

Source: patent US20140296338A1, “PROPHYLACTIC AND/OR THERAPEUTIC AGENT FOR CARDIOVASCULAR COMPLICATIONS OF DIABETES” (priority 2011, published 2014)
